# System: human polymorphonuclear phagocytes
# Experiment: in vitro PMN model: ROS formation triggered by fMLP, dihydrorhodamine fluorescence by flow cytometry
# Type: cell-based
# Method: L-ergothioneine meeting the purity specifications defined herein was tested using in an in vitro PMN model using cells from a healthy blood donor. Minute samples of blood were exposed to L-ergothioneine (0.01-5 g/L) for 24 hours. The cells were then loaded with the dihydrorhodamine dye, which turns fluorescent upon exposure to ROS. Formation of ROS was triggered by addition of the bacterial peptide f-Met-Leu-Phe (fMLP). The samples were treated with a lysing buffer to eliminate most of the red blood cells in the samples, after which the samples were fixed in formalin. The fluorescence intensity of the PMN cells was evaluated by flow cytometry. The low fluorescence intensity of untreated control cells served as a baseline and PMN cells treated with fMLP alone served as a positive control.
# The results are depicted in FIG. 1. […] The percent inhibition is shown as the average±standard deviation of sextuplicate data points for each dose of L-ergothioneine.
compound,measurement,setting,value
"C[N+](C)(C)[C@@H](Cc1c[nH]c(=S)[nH]1)C(=O)[O-] [L-ergothioneine, (2S)-3-(2-thioxo-2,3-dihydro-1H-imidazol-4-yl)-2-(trimethylammonio)-propanoate]",ROS formation in response to the bacterial peptide fMLP,"PMN cells from a healthy blood donor, L-ergothioneine 0.01-5 g/L for 24 hours, compared to fMLP alone",enhanced ROS formation
same,increase in ROS formation compared to the control cultures,"across the 0.6 g/L dose reported in human tissue, 24 hours, fMLP-triggered",remained statistically significant
